Experimental data from patent publication US8546338B2, “Self-assembling hydrogels based on dicephalic peptide amphiphiles” (Johnson & Johnson Consumer Companies, Inc., priority 2010, dated 2013).

Tested on: human umbilical cord cells (hUTCs)
Assay: Cell viability of encapsulated hUTCs in DPA gels (Live/Dead)
Assay type: cell-based
Conditions: 2 wt % gel, 100,000 cells, after 1, 2 and 3 weeks
Procedure: The viability and proliferation of cells in the gels was evaluated by encapsulating human umbilical cord cells (hUTCs) in the gels. hUTCs were isolated as described in U.S. Pat. No. 7,510,873. Cells were thawed from storage and cultured for four days in Hayflick media. After four days, the cells were trypsinized and counted by the Guava ViaCount methodology (Millipore, Billerica, Mass.). Cells were re-suspended in Hayflick media at a density of 1,000,000 cells/ml. Encapsulation of the cells in the gels was achieved by adding 100 μl cell suspension to 100 μl of a 4 wt % DPA solution in ultrapure in a 24 well plate, resulting in a final DPA concentration of 2%. The gels were incubated for 1 h at 37° C., 5% CO2 after which 1000 μl media was added on top of the gel. Cells were incubated at 37° C., 5% CO2. Every 3-4 days of culture, 500 μl media was replaced.
After mixing of the cell suspension and 4% DPA solution by pipetting up and down, the protocol described above was modified by adding 10 μl 100 mg/ml calcium chloride solution upon which gelation occurred. Final concentrations are 2% in DPA and 100,000 cells. Control gels without cells were prepared by using pure media and additional cell only and cells with calcium chloride controls were prepared as standard 2D culture. After 7 days of culture, the gels were assayed with Live/Dead assay for cell viability and Invitrogen CyQuant GR assay for cell proliferation (Invitrogen, Carlsbad, Calif.). The Live/Dead was performed as described in the provided protocol but at half the […] concentration to reduce non-specific fluorescence due to dye absorption. […] The cells in the gels contained a lot of viable cells (FIG. 410). No dead cells could be observed in the gels. Therefore, the viability of these cells in the gels is very high (>95%).
In a second experiment, 100,000 hUTC cells were encapsulated in 2 wt % Gly-Phe-Gly-Phe-Gly-Phe-Gly-Gln-Gln-Ser (SEQ ID NO: 8) DPA gels. The cells were cultured for 3 weeks and cells were assessed after 1, 2 and 3 weeks with Live/Dead.

## CCCCCCCCCCCCCCCC(=O)NC(C(=O)NCC(=O)N[C@@H](Cc1ccccc1)C(=O)NCC(=O)N[C@@H](Cc1ccccc1)C(=O)NCC(=O)N[C@@H](Cc1ccccc1)C(=O)NCC(=O)N[C@@H](CCC(N)=O)C(=O)N[C@@H](CCC(N)=O)C(=O)N[C@@H](CO)C(=O)O)C(=O)NCC(=O)N[C@@H](Cc1ccccc1)C(=O)NCC(=O)N[C@@H](Cc1ccccc1)C(=O)NCC(=O)N[C@@H](Cc1ccccc1)C(=O)NCC(=O)N[C@@H](CCC(N)=O)C(=O)N[C@@H](CCC(N)=O)C(=O)N[C@@H](CO)C(=O)O [Gly-Phe-Gly-Phe-Gly-Phe-Gly-Gln-Gln-Ser]
  Viability of hUTC cells, Live/Dead: very limited numbers of dead cells were detected
